Several values for one entry are separate records, joined by “and”; a condition that tells them apart may be missing. Identical values can stand only once.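 Growth conditions: 96-well plates. Treatment: test compound, 48 hours, 5 concentrations. Analysis: linear interpolation between bracketing concentrations; unreached endpoints set to highest concentration. GI50 marks 50% less growth. TGI marks complete inhibition of growth.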
Experiments:
Test in all cases: NCI tumour cell line growth inhibition, 48 h
SF-268 CNS = test system: SF-268 CNS
HCT-15 colon = test system: HCT-15 colon
OVCAR-4 ovarian = test system: OVCAR-4 ovarian
SW-620 colon = test system: SW-620 colon
MDA-MB-231 breast = test system: MDA-MB-231 breast
OVCAR-3 ovarian = test system: OVCAR-3 ovarian
OVCAR-8 ovarian = test system: OVCAR-8 ovarian
A498 renal = test system: A498 renal
SN12C renal = test system: SN12C renal
BT-549 breast = test system: BT-549 breast

| SMILES | TGI (SF-268 CNS) | TGI (HCT-15 colon) | TGI (OVCAR-4 ovarian) | TGI (SW-620 colon) | TGI (MDA-MB-231 breast) | TGI (OVCAR-3 ovarian) | TGI (OVCAR-8 ovarian) | TGI (A498 renal) | TGI (SN12C renal) | TGI (BT-549 breast) | GI50 (SF-268 CNS) | GI50 (HCT-15 colon) | GI50 (OVCAR-4 ovarian) | GI50 (SW-620 colon) | GI50 (MDA-MB-231 breast) | GI50 (OVCAR-3 ovarian) | GI50 (OVCAR-8 ovarian) | GI50 (A498 renal) | GI50 (SN12C renal) | GI50 (BT-549 breast) |
| --- | --- | --- | --- | --- | --- | --- | --- | --- | --- | --- | --- | --- | --- | --- | --- | --- | --- | --- | --- | --- |
| O=C(O)CCC1COc2ccccc2O1 (centres undefined) | > 10 µM | > 10 µM | > 10 µM | > 10 µM | > 10 µM | > 10 µM | > 10 µM | > 10 µM | > 10 µM | > 10 µM | – | – | – | – | – | – | – | – | – | – |
| COc1cc2c3c(n(CCCN)c(=O)c2cc1OC)-c1ccc(F)cc1C3=O | 20.3 µM | 6.89 µM | 21.2 µM | 15.5 µM | 26.3 µM | 17.4 µM | 11.3 µM | 28.5 µM | 17.4 µM | 14.4 µM | 3.08 µM | 2.24 µM | 6.04 µM | 1.17 µM | 12.8 µM | 4.46 µM | 3.07 µM | 14.2 µM | 4.29 µM | 3.81 µM |
| COc1c2ccccc2c(O)c2c(=O)c(C(=O)O)cn(C)c12 | > 100 µM | > 100 µM | > 100 µM | > 100 µM | > 100 µM | > 100 µM | > 100 µM | > 100 µM | – | > 100 µM | > 100 µM | > 100 µM | > 100 µM | > 100 µM | > 100 µM | > 100 µM | > 100 µM | 18.8 µM | – | > 100 µM |
| NC1=NC(c2ccccc2)N=C(Nc2ccccc2)N1 (centres undefined) | > 100 µM | > 100 µM | > 100 µM | > 100 µM | > 100 µM | > 100 µM | > 100 µM | > 100 µM | > 100 µM | > 100 µM | 55.1 µM | > 100 µM | > 100 µM | > 100 µM | > 100 µM | 32 µM | > 100 µM | 11.4 µM | > 100 µM | > 100 µM |
| Nc1nc2c(c3ncccc13)C(c1cccc(Cl)c1)Cc1ncccc1-2 (centres undefined) | 32.1 µM | 20.6 µM | 40.5 µM | 30.8 µM | 23.7 µM | 4.88 µM | 37.5 µM | 6.24 µM | 44.5 µM | 13.3 µM | 3.79 µM | 1.22 µM | 5.14 µM | 0.88 µM | 4.19 µM | 1.11 µM | 3.95 µM | 1.35 µM | 5.93 µM | 2.28 µM |
| C#CCN1CCN(C(=S)N/N=C(\C)c2ccccn2)CC1 | 16.5 µM | 4.19 µM | 4.74 µM and 3.84 µM | 7.3 µM and 4.27 µM | 3.54 µM and 5.04 µM | 1.4 µM and 1.2 µM | 3.5 µM and 3.46 µM | 5.47 µM and 5.21 µM | 11.4 µM | 3.29 µM and 3.25 µM | – | 0.019 µM | 2.73 µM | – | – | 0.00448 µM | 0.0131 µM | 3.31 µM | 2.39 µM | – |
| O=C(Oc1ccc([N+](=O)[O-])cc1)N1CCN(Cc2cccc(Oc3ccccc3)c2)CC1 | > 100 µM | > 100 µM | > 100 µM | > 100 µM | > 100 µM | > 100 µM | > 100 µM | > 100 µM | > 100 µM | > 100 µM | > 100 µM | > 100 µM | > 44.8 µM | > 100 µM | > 100 µM | > 96.2 µM | > 100 µM | > 47.6 µM | > 100 µM | 52 µM |
| CN(C)CCNC(=O)c1cccc2cc3ccccc3nc12 | 8.18 µM | – | 4.99 µM | 3.17 µM | 9.65 µM | 4.22 µM | 7.73 µM | 2.8 µM | > 19.9 µM | 10.8 µM | 1.65 µM | 1.25 µM | 2.11 µM | 0.775 µM | 2.35 µM | 1.36 µM | 0.62 µM | 1.26 µM | 1.84 µM | 2.41 µM |
| COc1ncc(-c2nc3c(n2C(C)C)[C@H](c2ccc(Cl)cc2)N(c2cc(Cl)cn(C)c2=O)C3=O)c(OC)n1 | > 100 µM | > 100 µM | > 100 µM | > 100 µM | > 100 µM | > 100 µM | > 100 µM | 84.6 µM | > 100 µM | > 100 µM | 71.5 µM | 34.5 µM | 29.2 µM | 63.7 µM | 29.6 µM | 46 µM | 59.7 µM | 19.2 µM | 49.8 µM | 36.7 µM |
| Nc1ccn([C@H]2C[C@@H](O)[C@@H](CO)S2)c(=O)n1 | > 100 µM | > 100 µM | > 100 µM | > 100 µM | > 100 µM | > 100 µM | > 100 µM | > 100 µM | > 100 µM | > 100 µM | > 100 µM | 11.8 µM | > 100 µM | > 70.1 µM | > 100 µM | > 100 µM | 11.2 µM | > 100 µM | > 44.7 µM | > 100 µM |
| CCC(=O)OC1CCn2c1nc1c2C(=O)C(C)=C(N2CC2)C1=O (centres undefined) | 1.22 µM and 0.254 µM | 0.209 µM and 0.0527 µM | 0.291 µM and 0.667 µM | 0.244 µM and 0.13 µM | 3.32 µM | 0.0975 µM and 0.137 µM | 0.338 µM and 0.211 µM | 0.106 µM | 0.119 µM and 0.333 µM | 0.192 µM | 0.0309 µM | 0.0204 µM | 0.293 µM | 0.0248 µM | – | 0.0296 µM | 0.0327 µM | – | 0.0285 µM | – |
| COc1cc2c3c(n(CCN)c(=O)c2cc1OC)-c1cc2c(cc1C3=O)OCO2 | 3.18 µM | – | 3.02 µM | 2.29 µM | 0.84 µM | – | – | 18.9 µM | 1.3 µM | 3.01 µM | 0.749 µM | 0.471 µM | 1.43 µM | 0.0383 µM | 0.255 µM | – | 1.12 µM | 3.48 µM | 0.254 µM | 0.959 µM |
| O=C1c2cccnc2-c2nc(/C=C/c3ccccc3)cc3c2c1nc1ccccc13 | > 21.2 µM | 2.1 µM | 10.5 µM | – | > 80.8 µM | 4.69 µM | > 30 µM | 10.5 µM | 9.01 µM | 17.3 µM | 2.24 µM | 0.844 µM | 3.77 µM | – | 6.95 µM | 1.9 µM | 3.8 µM | 3.88 µM | 2.77 µM | 6.38 µM |
